Paper PMC8474115 (Journal of Medicinal Chemistry, 2021)
Where a name gives a salt, the structure may show the parent alone. Read-outs that look alike come from different tables or passages of the source.

How the values were obtained:
h5-HT3R = h5-HT3R (Homo sapiens, UniProt P46098); details: inhibition of inward currents in response to 5-HT (EC80)
Protocol: All recordings were obtained from a holding potential of -60 mV. To establish the baseline response, serotonin was added at the concentration corresponding to its EC80 value. Subsequently, the test compound was characterized in a dose–response protocol at the concentration ranges from 10^–6 to 10^–11 M, with 30 s preincubation, followed by the addition of 5-HT at its EC80 in the presence of the compound for 2 s.
Peak inward currents were measured in response to the serotonin additions in the presence of a single concentration of the compound. Obtained data have been normalized to the baseline peak current induced by the addition of EC80 serotonin for 2 s, according to eq 1 [drawing 4] 1 Received data were analyzed using a four-parameter logistic equation in GraphPad Prism software.

h5-HT2AR = h5-HT2AR (Homo sapiens, UniProt P28223); details: 5-HT2AR
Protocol: (§1) For membrane preparation, cells after reaching 90% confluence, were washed with phosphate-buffered saline (PBS), and pelleted by centrifugation (200 × g) in PBS containing 0.1 mM EDTA and 1 mM dithiothreitol.
(§2) The total reaction volume was 200 μL. The incubation process was terminated by filtration through UniFilter-96 (PerkinElmer) plates with the FilterMate Universal Harvester (PerkinElmer, #C961962), and radioactivity retained on the filters was quantified on a MicroBeta counter for radiometric detection (PerkinElmer). […] To evaluate the level of nonspecific signal 10 μM of 5-HT for 5-HT1AR and 5-HT7R, 20 μM of mianserin for 5-HT2AR, 10 μM of methiothepine for 5-HT6R and 10 μM of haloperidol for D2LR were used. […] The acquired results were presented as the mean of at least two independent experiments.

hD2L = hD2L (Homo sapiens, UniProt P14416); details: D2R
Protocol: as §1, §2

h5-HT1A = h5-HT1A (Homo sapiens, UniProt P08908); details: 5-HT1AR
Protocol: as §1, §2

h5-HT7b = h5-HT7b (Homo sapiens, UniProt P34969); details: 5-HT7R
Protocol: as §1, §2

5-HT3R = biological target: T1, 5-HT3R (Cavia porcellus, UniProt O70212); details: for antagonist effect: percent inhibition of response to 5-HT 3 μM (contraction of guinea pig ileum); for functional classification at 5-HT3R: guinea pig ileum contraction
T1 sequence (O70212 20-490): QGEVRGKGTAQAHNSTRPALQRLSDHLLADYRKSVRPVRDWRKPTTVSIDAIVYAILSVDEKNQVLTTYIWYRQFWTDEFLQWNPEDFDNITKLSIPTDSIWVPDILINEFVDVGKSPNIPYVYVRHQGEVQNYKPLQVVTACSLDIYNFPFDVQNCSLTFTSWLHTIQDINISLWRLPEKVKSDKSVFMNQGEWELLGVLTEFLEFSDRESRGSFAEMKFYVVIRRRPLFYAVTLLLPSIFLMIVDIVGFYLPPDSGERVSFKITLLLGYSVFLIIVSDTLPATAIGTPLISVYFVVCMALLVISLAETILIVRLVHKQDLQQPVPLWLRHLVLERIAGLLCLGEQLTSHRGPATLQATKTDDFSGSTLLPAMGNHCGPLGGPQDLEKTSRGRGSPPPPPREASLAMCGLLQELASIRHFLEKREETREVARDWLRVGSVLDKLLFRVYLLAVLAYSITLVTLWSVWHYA
Protocol: Isolated guinea pig ileum was employed to test the affinity and the intrinsic activity of the investigated compounds for 5-HT3 receptors. […] A 15 cm ileum segment was excised from the small intestine of male guinea pigs and immersed into a Krebs solution (NaCl 120 mM, KCl 5.6 mM, MgCl2 2.2 mM, CaCl2 2.4 mM, NaHCO3 19 mM, glucose 10 mM). After the first 5 cm length closest to the ileocaecal junction had been discarded 2 cm-long fragments were cut. Each segment of the ileum was placed in a 20 mL chamber of tissue organ bath system (Tissue Organ Bath System – 750 TOBS, DMT, Denmark) filled with the Krebs solution at 37° C, pH 7.4, with constant oxygenation (O2/CO2, 19:1), fixed by the lower end to a rod and by the upper end to the force–displacement transducer. The preparation was allowed to stabilize in organ baths for 60 min under a resting tension of 0.5 g, washing every 15 min with fresh Krebs solution. After the equilibration period, a cumulative concentration–response curve was constructed in each tissue for 5-HT (10 nM – 10 μM) by the method of van Rossum.[64] […] Selected compounds were tested using an additional method. After establishment of the first 5-HT concentration–response curve, washing out of the tissue, and stabilization period, the same tissues were subsequently incubated with one of the concentrations of the tested compound for 15 min and the next cumulative concentration curve to 5-HT was obtained. Only one concentration of a studied compound was tested in each piece of tissue.

h5-HT6R [1] = biological target: T2, h5-HT6R (Homo sapiens, UniProt P50406)
Protocol: as §1, §2

h5-HT6R [2] = biological target: T2, h5-HT6R; assay: Inhibition of 5-CT-induced cAMP production in 1321N1 cells expressing h5-HT6R; format: cell-based; design: host or cells: 1321N1; details: for Kb: cAMP; for antagonist effect: 10^–6 M, percent inhibition of control agonist response
male Sprague–Dawley rats [3] = test system: male Sprague–Dawley rats
Protocol: (§3) Both spontaneous and PCP-induced locomotor activity were measured automatically in Opto-Varimex-4 Auto-Tracks (Columbus Instruments, Ohio) located in sound-attenuated and ventilated boxes. The Auto-Track System sensed the motion with a grid of infrared photocells (16 beams per axis) surrounding the arena.
(§4) Following 30 min of spontaneous activity measurement, the animals were removed from the boxes, injected with phencyclidine hydrochloride (PCP) at a dose of 5 mg/kg (SC), and then PCP-induced locomotor activity was measured for 120 min.
(§5) The measurements (30 min) preceding PCP administration indicate drug-induced effects on spontaneous locomotor activity. The second period (measured in the same animals at 0-120 min following PCP administration) indicates drug-induced alteration of PCP-induced hyperactivity.
(§6) Mixed-design two-way ANOVA with treatment(s) as between-subject factor and time as repeated measures factor on raw distance data, and separate one-way or two-way ANOVAs (on AUC data) followed by Dunnett’s multiple comparison, LSD or Tukey’s post hoc tests as well as analyses of contrast coefficients (Statistica 12 for Windows, IBM SPSS ver 26 for Mac) were used to assess the effects of compounds on activity.

male Sprague–Dawley rats [4] = details: AUC −25 to 0 min before PCP
Protocol: as §3, §4, §5, §6

[5] = HEK cells stably expressing h5-HT6R

T2 sequence (P50406 whole entry): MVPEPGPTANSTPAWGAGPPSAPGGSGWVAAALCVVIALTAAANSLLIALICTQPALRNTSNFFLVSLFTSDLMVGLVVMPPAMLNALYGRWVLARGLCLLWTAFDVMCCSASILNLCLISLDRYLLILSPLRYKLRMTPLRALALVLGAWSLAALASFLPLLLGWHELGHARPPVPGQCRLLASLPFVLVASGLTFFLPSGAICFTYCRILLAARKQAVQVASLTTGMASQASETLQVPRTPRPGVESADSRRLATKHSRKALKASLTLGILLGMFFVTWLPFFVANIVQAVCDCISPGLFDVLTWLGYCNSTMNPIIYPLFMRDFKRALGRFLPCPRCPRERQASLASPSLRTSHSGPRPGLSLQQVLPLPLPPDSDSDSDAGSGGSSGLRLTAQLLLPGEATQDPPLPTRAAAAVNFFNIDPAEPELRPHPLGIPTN
Sequence of h5-HT1A (P08908 whole entry): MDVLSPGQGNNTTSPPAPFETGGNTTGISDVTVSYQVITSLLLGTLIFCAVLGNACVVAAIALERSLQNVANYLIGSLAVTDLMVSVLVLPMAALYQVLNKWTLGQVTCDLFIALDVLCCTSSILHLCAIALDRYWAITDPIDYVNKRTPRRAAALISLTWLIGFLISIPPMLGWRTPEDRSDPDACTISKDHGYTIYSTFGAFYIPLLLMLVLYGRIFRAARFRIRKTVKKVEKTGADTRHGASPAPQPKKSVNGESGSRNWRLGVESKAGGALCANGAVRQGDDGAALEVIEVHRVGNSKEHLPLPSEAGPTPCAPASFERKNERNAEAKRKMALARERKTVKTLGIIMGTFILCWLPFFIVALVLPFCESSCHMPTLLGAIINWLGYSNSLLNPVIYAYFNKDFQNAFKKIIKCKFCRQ
Sequence of hD2L (P14416 whole entry): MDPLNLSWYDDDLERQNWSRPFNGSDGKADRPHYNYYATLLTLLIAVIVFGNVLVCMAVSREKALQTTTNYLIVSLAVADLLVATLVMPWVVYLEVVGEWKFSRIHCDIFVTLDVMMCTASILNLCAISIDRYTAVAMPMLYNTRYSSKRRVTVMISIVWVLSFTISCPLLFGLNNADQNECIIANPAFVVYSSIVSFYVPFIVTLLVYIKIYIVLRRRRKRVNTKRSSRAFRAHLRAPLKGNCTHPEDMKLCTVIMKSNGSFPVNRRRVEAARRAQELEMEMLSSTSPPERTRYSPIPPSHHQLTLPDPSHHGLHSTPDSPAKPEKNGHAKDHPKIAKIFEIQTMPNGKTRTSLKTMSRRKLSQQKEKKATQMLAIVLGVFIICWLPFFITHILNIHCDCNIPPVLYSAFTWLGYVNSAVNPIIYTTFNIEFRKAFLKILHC
Sequence of h5-HT7b (P34969 1-432 limits assumed): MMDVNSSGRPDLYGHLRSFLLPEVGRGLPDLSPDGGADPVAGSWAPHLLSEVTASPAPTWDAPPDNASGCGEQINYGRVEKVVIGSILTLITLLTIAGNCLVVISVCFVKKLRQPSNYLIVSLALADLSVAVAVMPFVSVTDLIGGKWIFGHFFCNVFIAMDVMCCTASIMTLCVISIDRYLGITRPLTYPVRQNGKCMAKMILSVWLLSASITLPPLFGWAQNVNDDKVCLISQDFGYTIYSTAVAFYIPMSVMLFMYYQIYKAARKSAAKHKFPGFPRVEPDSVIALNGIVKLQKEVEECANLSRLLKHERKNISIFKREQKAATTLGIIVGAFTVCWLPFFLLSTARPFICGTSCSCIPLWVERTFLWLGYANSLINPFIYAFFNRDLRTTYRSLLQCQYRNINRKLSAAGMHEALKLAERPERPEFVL
Sequence of h5-HT2AR (P28223 whole entry, looked up): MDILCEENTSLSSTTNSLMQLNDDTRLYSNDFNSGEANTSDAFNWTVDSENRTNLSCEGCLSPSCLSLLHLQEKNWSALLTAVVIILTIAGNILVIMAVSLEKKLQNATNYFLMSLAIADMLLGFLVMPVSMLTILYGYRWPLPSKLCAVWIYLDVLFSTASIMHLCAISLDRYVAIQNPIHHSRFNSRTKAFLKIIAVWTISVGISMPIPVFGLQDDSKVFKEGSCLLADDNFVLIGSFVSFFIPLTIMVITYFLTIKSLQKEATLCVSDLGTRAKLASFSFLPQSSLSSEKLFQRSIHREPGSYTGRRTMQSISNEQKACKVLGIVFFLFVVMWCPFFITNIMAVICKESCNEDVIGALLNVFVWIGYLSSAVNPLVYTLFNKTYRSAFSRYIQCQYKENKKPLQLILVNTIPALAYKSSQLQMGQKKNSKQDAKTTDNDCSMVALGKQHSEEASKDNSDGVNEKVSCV
Sequence of h5-HT3R (P46098 24-478): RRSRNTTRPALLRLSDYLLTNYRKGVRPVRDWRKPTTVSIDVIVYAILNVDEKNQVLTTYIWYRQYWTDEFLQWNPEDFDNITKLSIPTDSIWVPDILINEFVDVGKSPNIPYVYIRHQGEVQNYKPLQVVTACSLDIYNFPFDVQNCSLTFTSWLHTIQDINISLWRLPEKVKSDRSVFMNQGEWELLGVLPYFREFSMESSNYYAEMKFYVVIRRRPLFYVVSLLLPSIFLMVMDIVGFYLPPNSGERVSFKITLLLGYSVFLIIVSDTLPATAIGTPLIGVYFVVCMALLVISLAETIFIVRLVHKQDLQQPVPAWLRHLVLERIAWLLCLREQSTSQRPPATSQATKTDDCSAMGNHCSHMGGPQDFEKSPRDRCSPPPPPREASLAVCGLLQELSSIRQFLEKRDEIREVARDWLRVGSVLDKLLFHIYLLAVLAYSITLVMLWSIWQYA

O=C1c2cccc3c2[C@H](CCC3)CN1[C@@H]1CN2CCC1CC2 [palonosetron]
IC50 (h5-HT3R): 1.7 nM

Cc1cccc(S(=O)(=O)n2ccc3c(N4CCNCC4)nc4ccccc4c32)c1 [Compound 20, 1-[(3-Methylphenyl)sulfonyl]-4-(piperazin-1-yl)-1H-pyrrolo[3,2-c]quinoline dihydrochloride]
Ki (h5-HT2AR): 4630 nM
Ki (hD2L): 2160 nM
Ki (h5-HT1A): 760 nM
Ki (h5-HT7b): 4140 nM
antagonist effect (5-HT3R; 30 nM): 20%
antagonist effect (5-HT3R; 100 nM): 40%

O=S(=O)(c1ccccc1)n1ccc2c(N3CCNCC3)nccc21 [II, reference compound]
Ki (h5-HT6R [1]): 6 nM
Kb (h5-HT6R [2]; Kb): 1 nM

O=S(=O)(c1ccc(F)cc1)n1ccc2c(N3CCNCC3)nc3ccccc3c21 [Compound 22, 1-[(4-Fluorophenyl)sulfonyl]-4-(piperazin-1-yl)-1H-pyrrolo[3,2-c]quinoline dihydrochloride]
Ki (h5-HT6R [1]; [5]): 18 nM
antagonist effect (h5-HT6R [2]): 72%
antagonist effect (5-HT3R; 300 nM): 48 (300 nM) %

COc1ccc(S(=O)(=O)Nc2cc(Cl)cc(Cl)c2OC)cc1N1CCNCC1 [SB399885]
effect on PCP-induced hyperactivity (male Sprague–Dawley rats [3]; SB399885 1 mg/kg IP, AUC post-PCP vs vehicle): enhances PCP-induced hyperactivity compared with vehicle
effect on PCP-induced hyperactivity (male Sprague–Dawley rats [3]; SB399885 alone IP, doses up to 9 mg/kg, AUC 1st and 2nd hour post-PCP): did not affect PCP-induced hyperactivity
effect on spontaneous activity (male Sprague–Dawley rats [4]; SB399885 1 mg/kg IP): neither compound affected spontaneous activity
effect on spontaneous activity (male Sprague–Dawley rats [4]; SB399885 9 mg/kg IP): sedative-like action

CN1CCN(c2nc3ccccc3c3[nH]ccc23)CC1 [Compound 5d, 4-(4-Methylpiperazin-1-yl)-1H-pyrrolo[3,2-c]quinoline]
Ki (h5-HT6R [1]): 245 nM
Kb (h5-HT6R [2]; Kb): > 10000 nM
functional classification at 5-HT3R (5-HT3R): agonist

Cc1nccn1CC1CCc2c(c3ccccc3n2C)C1=O (stereo not drawn) [ondansetron, reference compound]
Kb (h5-HT6R [2]; read-out: Kb): 58200 nM
pA2 (5-HT3R; antagonist potency, Schild analysis, guinea pig ileum): pA2 = 7.11 ± 0.12
effect on spontaneous activity (male Sprague–Dawley rats [4]; ondansetron 0.5 mg/kg IP): neither compound affected spontaneous activity

CC(C)c1ccc(S(=O)(=O)n2ccc3c(N4CCNCC4)nc4ccccc4c32)cc1 [Compound 24, 1-[(4-iso-Propylphenyl)sulfonyl]-4-(piperazin-1-yl)-1H-pyrrolo[3,2-c]quinoline dihydrochloride]
Ki (h5-HT6R [1]; [5]): 14 nM
antagonist effect (h5-HT6R [2]): 65%
antagonist effect (5-HT3R; 300 nM): 38 (300 nM) %

c1ccc2c(c1)nc(N1CCNCC1)c1cc[nH]c12 [Compound 5e, 4-(Piperazin-1-yl)-1H-pyrrolo[3,2-c]quinoline]
Ki (h5-HT6R [1]): 757 nM
Kb (h5-HT6R [2]; Kb): > 10000 nM
functional classification at 5-HT3R (5-HT3R): partial agonist

O=S(=O)(c1ccccc1)n1ccc2c(N3CCNCC3)nc3ccccc3c21 (as salt: hydrochloride) [Compound 7, 1-(Phenylsulfonyl)-4-(piperazin-1-yl)-1H-pyrrolo[3,2-c]quinoline dihydrochloride]
melting point: 130 to 132 °C

O=S(=O)(c1cccc(Cl)c1)n1ccc2c(N3CCNCC3)nc3ccccc3c21 [Compound 18, 1-[(3-Chlorophenyl)sulfonyl]-4-(piperazin-1-yl)-1H-pyrrolo[3,2-c]quinoline dihydrochloride]
Ki (h5-HT2AR): 1670 nM
Ki (hD2L): 1340 nM
Ki (h5-HT1A): 773 nM
Ki (h5-HT7b): 1790 nM
antagonist effect (5-HT3R; 100 nM): 11%
antagonist effect (5-HT3R; 300 nM): 72%

CNC1CCN(c2nc3ccccc3c3c2ccn3S(=O)(=O)c2ccccc2)C1 (stereo not drawn) (as salt: hydrochloride) [Compound 10, N-Methyl-1-(1-(phenylsulfonyl)-1H-pyrrolo[3,2-c]quinolin-4-yl)pyrrolidin-3-amine dihydrochloride]
melting point: 256 to 258 °C

O=S(=O)(c1ccc(C(F)(F)F)cc1)n1ccc2c(N3CCNCC3)nc3ccccc3c21 (as salt: hydrochloride) [Compound 23, 1-{[4-(Trifluoromethyl)phenyl]sulfonyl}-4-(piperazin-1-yl)-1H-pyrrolo[3,2-c]quinoline dihydrochloride]
melting point: 165 to 167 °C

O=S(=O)(c1ccc(C(F)(F)F)cc1)n1ccc2c(N3CCNCC3)nc3ccccc3c21 [Compound 23, 1-{[4-(Trifluoromethyl)phenyl]sulfonyl}-4-(piperazin-1-yl)-1H-pyrrolo[3,2-c]quinoline dihydrochloride]
Ki (h5-HT6R [1]; [5]): 34 nM
antagonist effect (h5-HT6R [2]): 63%

O=S(=O)(c1cccc(Cl)c1)n1ccc2c(N3CCNCC3)nc3ccccc3c21 (as salt: hydrochloride) [Compound 18, 1-[(3-Chlorophenyl)sulfonyl]-4-(piperazin-1-yl)-1H-pyrrolo[3,2-c]quinoline dihydrochloride]
melting point: 161 to 163 °C

O=S(=O)(c1ccccc1Br)n1ccc2c(N3CCNCC3)nc3ccccc3c21 [Compound 15, 1-[(2-Bromophenyl)sulfonyl]-4-(piperazin-1-yl)-1H-pyrrolo[3,2-c]quinoline dihydrochloride]
Ki (h5-HT6R [1]; [5]): 13 nM
antagonist effect (h5-HT6R [2]): 69%
